The values below come from US20160346291A1, “COMPOSITIONS AND THERAPEUTIC METHODS FOR ACCELERATED PLAQUE REGRESSION” (Resverlogix Corp, priority 2013, published 2016).

The subject of this test is ApoA-I mRNA. The experiment in a line: ApoA-I mRNA quantitation in HepG2 cells (real-time PCR). The test is classed as cell-based. The arrangement: key: Active: An active compound is one that causes a >15% increase in ApoA-I mRNA at a concentration less than or equal to 100 uM. Particulars: concentration less than or equal to 100 uM, fold induction relative to DMSO control. The protocol:
At time of harvesting, the spent media was removed from the HepG2 cells and immediately placed on ice (for immediate use) or at −80° C. (for future use) in ApoA-I and albumin ELISAs. The cells remaining in the plate wells were rinsed in 200 μL PBS. PBS was carefully removed to avoid removing any loosely attached cells.
Once the PBS was removed, 85 μL cell lysis solution was added to the cells in each well and incubated for 5-10 min at room temperature, to allow for complete cell lysis and detachment. mRNA was then prepared using the “mRNA Catcher PLUS plate” from Invitrogen, according to the protocol supplied. After the last wash, as much wash buffer as possible was aspirated without allowing the wells to dry. Elution Buffer (E3, 80 μL) was then added to each well. mRNA was then eluted by incubating the mRNA Catcher PLUS plate with Elution Buffer for 5 min at 68° C. and then immediately placing the plate on ice.
The eluted mRNA was isolated and then used in a one-step real-time […]-PCR reaction, using components of the Ultra Sense Kit together with Applied Biosystems primer-probe mixes. Real-time PCR data was analyzed, using the Ct values, to determine the fold induction of each unknown sample, relative to the control (that is, relative to the control for each independent DMSO concentration).
The following compounds of Formula I were evaluated in this assay. An active compound is one that causes a >15% increase in ApoA-I mRNA at a concentration less than or equal to 100 uM.

Consider `COc1cc(OC)c2c(=O)[nH]c(-c3ccc(OCC(N)=O)cc3)nc2c1` [2-(4-(5,7-dimethoxy-4-oxo-3,4-dihydroquinazolin-2-yl)phenoxy)acetamide], for which the “Effect on ApoA-I mRNA levels” value is “Active”. For `COc1cc(OC)c2cnc(-c3cc(C)c(OCCO)c(C)c3)nc2c1` [2-(4-(5,7-dimethoxyquinazolin-2-yl)-2,6-dimethylphenoxy)ethanol], the “Effect on ApoA-I mRNA levels” value is recorded as “Active”. As for `COc1cc2nc(-c3cc(C)c(OCC(N)=O)c(C)c3)[nH]c(=O)c2cc1OC` [2-(4-(6,7-dimethoxy-4-oxo-3,4-dihydroquinazolin-2-yl)-2,6-dimethylphenoxy)acetamide], the entry is “Active”; as for `CCN1CCN(Cc2ccc(-c3nc4cc(OC)cc(OC)c4c(=O)[nH]3)cc2)CC1` [2-(4-((4-ethylpiperazin-1-yl)methyl)phenyl)-5,7-dimethoxyquinazolin-4(3H)-one], “Active”; as for `COc1cc(OC)c2c(=O)[nH]c(-c3cc(C)c(OCc4ccccc4)c(C)c3)nc2c1` [2-(4-(benzyloxy)-3,5-dimethylphenyl)-5,7-dimethoxyquinazolin-4(3H)-one], “Active”.

Take `COc1cc(OC)c2c(=O)[nH]c(-c3ccc(N(CCO)CCO)cc3)nc2n1` [2-(4-(bis(2-hydroxyethyl)amino)phenyl)-5,7-dimethoxypyrido[2,3-d]pyrimidin-4(3H)-one]: the “Effect on ApoA-I mRNA levels” value was “Active”. Under `COc1cc(OC)c2c(=O)[nH]c(-c3ccc(N(CCO)CCO)cc3)nc2c1` [2-(4-(bis(2-hydroxyethyl)amino)phenyl)-5,7-dimethoxyquinazolin-4(3H)-one] stands “Active”; under `COc1cc2nc(-c3ccc(N(CCO)CCO)cc3)[nH]c(=O)c2cc1OC` [2-(4-(bis(2-hydroxyethyl)amino)phenyl)-6,7-dimethoxyquinazolin-4(3H)-one], “Active”; under `O=c1[nH]c(-c2ccc(N(CCO)CCO)cc2)nc2ccccc12` [2-(4-(bis(2-hydroxyethyl)amino)phenyl)quinazolin-4(3H)-one], “Active”. As for `COc1cc(OC)c2c(=O)[nH]c(-c3ccc(N(C)C)c4ccccc34)nc2c1` [2-(4-(dimethylamino)naphthalene-1-yl)-5,7-dimethoxyquinazolin-4(3H)-one], the entry is “Active”; as for `CN(C)c1ccc(-c2nc3ccccc3c(=O)[nH]2)c2ccccc12` [2-(4-(dimethylamino)naphthalene-1-yl)quinazolin-4(3H)-one], “Active”; as for `COc1cc(OC)c2c(=O)[nH]c(-c3cc(C)c(N)c(C)c3)nc2c1` [2-(4-amino-3,5-dimethylphenyl)-5,7-dimethoxyquinazolin-4(3H)-one], “Active”. As for `COc1cc(OC)c2c(=O)nc(-c3cc(C)c(O)c(C)c3)n(C)c2c1` [2-(4-hydroxy-3,5-dimethylphenyl)-5,7-dimethoxy-1-methylquinazolin-4(1H)-one], the entry is “Active”; as for `COc1cc2nc(-c3cc(C)c(O)c(C)c3)[nH]c(=O)c2c(OC)c1CN1CCOCC1` [2-(4-hydroxy-3,5-dimethylphenyl)-5,7-dimethoxy-6-(morpholinomethyl)quinazolin-4(3H)-one], “Active”; as for `COc1cc(OC)c2c(=O)[nH]c(-c3cc(C)c(O)c(C)c3)nc2n1` [2-(4-hydroxy-3,5-dimethylphenyl)-5,7-dimethoxypyrido[2,3-d]pyrimidin-4(3H)-one], “Active”. Take `COc1cc(OC)c2c(=O)[nH]c(-c3cc(C)c(O)c(C)c3)nc2c1` [2-(4-hydroxy-3,5-dimethylphenyl)-5,7-dimethoxyquinazolin-4(3H)-one]: the “Effect on ApoA-I mRNA levels” value is recorded as “Active”.

Turning to `Cc1cc(-c2nc3ccc(CN4CCOCC4)cc3c(=O)[nH]2)cc(C)c1O` [2-(4-hydroxy-3,5-dimethylphenyl)-6-(morpholinomethyl)quinazolin-4(3H)-one], the “Effect on ApoA-I mRNA levels” value is “Active”.

On to `COc1cc(OC)c2c(=O)[nH]c(-c3ccc(O)c(CCO)c3)nc2c1` [2-(4-hydroxy-3-(2-hydroxyethyl)phenyl)-5,7-dimethoxyquinazolin-4(3H)-one], for which the “Effect on ApoA-I mRNA levels” value was “Active”. As for `COc1cc(OC)c2c(=O)[nH]c(-c3ccc(O)c(OC)c3)nc2c1` [2-(4-hydroxy-3-methoxyphenyl)-5,7-dimethoxyquinazolin-4(3H)-one], the entry is “Active”. `COc1cc(OC)c2c(=O)[nH]c(-c3ccc(O)c(C)c3)nc2c1` [2-(4-hydroxy-3-methylphenyl)-5,7-dimethoxyquinazolin-4(3H)-one]: the “Effect on ApoA-I mRNA levels” value is “Active”. As for `COc1cc(OC)c2c(=O)[nH]c(-c3ccc(O)cc3)nc2c1` [2-(4-hydroxyphenyl)-5,7-dimethoxyquinazolin-4(3H)-one], the entry is “Active”. As for `COc1cc(O)nc2cc(-c3cc(C)c(O)c(C)c3)[nH]c(=O)c12` [2-hydroxy-7-(4-hydroxy-3,5-dimethylphenyl)-4-methoxy-1,6-naphthyridin-5(6H)-one], the entry is “Active”. As for `COc1cc(OC)c2c(=O)[nH]c(-c3cc(C)c(OCCNC(=O)N(C)C)c(C)c3)nc2c1` [3-(2-(4-(5,7-dimethoxy-4-oxo-3,4-dihydroquinazolin-2-yl)-2,6-dimethylphenoxy)ethyl)-1,1-dimethylurea], the entry is “Active”; as for `COc1cc(OC)c2c(=O)[nH]c(-c3cc(C)c(OCCN4CCN(C)CC4)c(C)c3)cc2c1` [3-(3,5-dimethyl-4-(2-(4-methylpiperazin-1-yl)ethoxy)phenyl)-6,8-dimethoxyisoquinolin-1(2H)-one], “Active”; as for `COc1cc(OC)c2c(=O)[nH]c(-c3cc(C)c(OCCN4CCOCC4)c(C)c3)cc2c1` [3-(3,5-dimethyl-4-(2-morpholinoethoxy)phenyl)-6,8-dimethoxyisoquinolin-1(2H)-one], “Active”. In the case of `COc1cccc2c(=O)[nH]c(-c3ccc(O)c(F)c3)cc12` [3-(3-fluoro-4-hydroxyphenyl)-5-methoxyisoquinolin-1(2H)-one], the “Effect on ApoA-I mRNA levels” value is “Inactive”. For `COc1cc(OC)c2c(=O)[nH]c(-c3cc(C)c(OCCN(C)C)c(C)c3)cc2c1` [3-(4-(2-(dimethylamino)ethoxy)-3,5-dimethylphenyl)-6,8-dimethoxyisoquinolin-1(2H)-one], the “Effect on ApoA-I mRNA levels” value was “Active”. As for `COc1cc(OC)c2c(=O)[nH]c(-c3cc(C)c(OCC(C)(C)O)c(C)c3)cc2c1` [3-(4-(2-hydroxy-2-methylpropoxy)-3,5-dimethylphenyl)-6,8-dimethoxyisoquinolin-1(2H)-one], the entry is “Active”; as for `COc1cc(OC)c2c(=O)[nH]c(-c3cc(C)c(OCCO)c(C)c3)cc2c1` [3-(4-(2-hydroxyethoxy)-3,5-dimethylphenyl)-6,8-dimethoxyisoquinolin-1(2H)-one], “Active”; as for `COc1cc(OC)c2c(=O)[nH]c(-c3ccc(CCC(=O)O)cc3)nc2c1` [3-(4-(5,7-dimethoxy-4-oxo-3,4-dihydroquinazolin-2-yl)phenyl)propanoic acid], “Active”. Regarding `O=c1[nH]c(-c2ccc(O)cc2)cc2ccccc12` [3-(4-Hydroxyphenyl)-2H-isoquinolin-1-one], the “Effect on ApoA-I mRNA levels” value is given as “Active”. Consider `COc1cc2cc(-c3cc(C)c(O)c(C)c3)n(C)c(=O)c2c(OC)c1C` [3-(4-hydroxy-3,5-dimethylphenyl)-6,8-dimethoxy-2,7-dimethylisoquinolin-1(2H)-one], for which the “Effect on ApoA-I mRNA levels” value was “Active”. As to `COc1cc2cc(-c3cc(C)c(O)c(C)c3)n(C)c(=O)c2c(OC)c1CN1CCOCC1` [3-(4-hydroxy-3,5-dimethylphenyl)-6,8-dimethoxy-2-methyl-7-(morpholinomethyl) isoquinolin-1(2H)-one], the “Effect on ApoA-I mRNA levels” value is listed as “Active”.

Turning to `COc1cc(OC)c2c(=O)n(C)c(-c3cc(C)c(O)c(C)c3)cc2c1` [3-(4-hydroxy-3,5-dimethylphenyl)-6,8-dimethoxy-2-methylisoquinolin-1(2H)-one], the “Effect on ApoA-I mRNA levels” value is given as “Active”.

Regarding `COc1cc2cc(-c3cc(C)c(O)c(C)c3)[nH]c(=O)c2c(OC)c1CN1CCOCC1` [3-(4-hydroxy-3,5-dimethylphenyl)-6,8-dimethoxy-7-(morpholinomethyl)isoquinolin-1(2H)-one], the “Effect on ApoA-I mRNA levels” value is given as “Active”. Regarding `COc1cc(OC)c2c(=O)[nH]c(-c3cc(C)c(O)c(C)c3)cc2c1` [3-(4-hydroxy-3,5-dimethylphenyl)-6,8-dimethoxyisoquinolin-1(2H)-one], the “Effect on ApoA-I mRNA levels” value was “Active”. As for `Cc1cc(-c2cc3ccc(CN4CCOCC4)cc3c(=O)[nH]2)cc(C)c1O` [3-(4-hydroxy-3,5-dimethylphenyl)-7-(morpholinomethyl)isoquinolin-1(2H)-one], the entry is “Active”. As for `COc1cc(OC)c2c(=O)[nH]c(-c3ccc(O)cc3)cc2c1` [3-(4-hydroxyphenyl)-6,8-dimethoxyisoquinolin-1(2H)-one], the entry is “Active”.
